Measurements: patent US8748594B2, “Process for the preparation and purification of topiramate” (Scinopharm Taiwan, Ltd., priority 2010, dated 2014)

Experiment: Solubility of topiramate in the first organic solvent (xylene, toluene)
Type: physicochemical
Procedure: It was further observed that the yield during the precipitation step can be improved when using xylene instead of toluene in the present invention. This is attributed to the fact that topiramate is less soluble in xylene compared to toluene. The solubility of topiramate in xylene was detected to be 0.0025 mg per mg xylene whereas the solubility of topiramate in toluene is 0.008 mg per mg solvent. Therefore, when using xylene as the first solvent in the present invention, the loss of topiramate in the mother liquid can be reduced.

CC1(C)O[C@@H]2[C@@H](CO[C@@]3(COS(N)(=O)=O)OC(C)(C)O[C@@H]23)O1 [topiramate, 2,3:4,5-bis-O-(1-methylethylidene)-β-D-fructopyranose sulfamate]
solubility of topiramate in toluene (solvent toluene): 0.008 mg per mg solvent | solubility of topiramate in xylene (solvent xylene): 0.0025 mg per mg xylene
